We go through 4 molecules from PMC9424819, “Evaluation of commonly used cardiovascular drugs in inhibiting vonoprazan metabolism in vitro and in vivo” (Frontiers in Pharmacology, 2022).

Structures can show the parent of a compound that is named as a salt. Where two headings read alike, the source gives them in different places.

The nature of data set [1]: Pharmacokinetics of vonoprazan and MI in rats with or without inhibitor pretreatment. The following applies: for AUC(0-inf) / AUC(0-t) / Cmax / Tmax / CL/F / MRT last / Vd/F / half-life / MRT inf: male, Sprague-Dawley, rat, plasma, po, 2 mg/kg; for CL/F: read-out: CLz/F (converted); for MRT last: read-out: MRT(0-t); for Vd/F: read-out: Vz/F; for half-life: read-out: t1/2z (converted); for MRT inf: read-out: MRT(0-∞). Type of data set: in vivo, Sprague-Dawley rats. The procedure: The Experimental Animal Research Center of Wenzhou Medical University provided specific pathogen-free (SPF) Sprague-Dawley rats (male, 350 ± 20 g, 3 months old). This research was conducted following the principles of the Basel Declaration. […] After one week of rearing in the new environment and fasting overnight, the drug could be gavaged.
Rats were randomly divided into three groups (n = 6). […] After 7 days, on the seventh day, all groups had gavage at a single dosage of 2 mg/kg vonoprazan.
Centrifugation at 4,000 rpm for 10 min was performed to obtain 100 µL of plasma, to which was added 200 µL of acetonitrile and 20 µL of diazepam IS. After vortex mixing and centrifugation at 13,000 rpm for 5 min, 5 µL of supernatant was obtained for analysis by UPLC-MS/MS.
(§1) The concentrations of vonoprazan and MI that were detected by UPLC-MS/MS were applied to GraphPad 7.0 (GraphPad Software Inc., United States) to calculate IC50 and depict plasma concentration-time curves and Lineweaver–Burk and Dixon plots. The pharmacokinetic parameters of the compartment analysis were calculated using DAS (version 3.2.8; The People’s Hospital of Lishui) and expressed as mean ± standard deviation. The t-test was carried out by SPSS 25.0 (SPSS Inc., United States) to compare those parameters. p value < 0.05 was considered statistically significant.

For data set [2], the system named is vonoprazan metabolism in rat liver microsomes (RLMs). The experiment in a line: Inhibition of vonoprazan metabolism (MI formation) in rat liver microsome incubation. Type of data set: in vitro ADME. The procedure: (§2) Eleven common-used cardiovascular drugs were chosen to detect their possible inhibition effect on vonoprazan. […] After preincubation at 37°C for 5 min in a shaking water bath, 20 mM NADPH was added to initiate the reaction, which lasted 30 min and was stopped with […] of acetonitrile. The mixture was vortexed after adding 20 µL of diazepam and then centrifugated at 13,000 rpm for 5 min. A 2 µL aliquot of the final supernatant was injected into the UPLC–MS/MS system for analysis. The relative inhibition was calculated according to the relative MI decrease compared to the control (vonoprazan naturally metabolized in RLMs). […] The same procedures were performed. Then, an inhibition mechanism experiment was conducted for further exploration. […] Both inhibitor and substrate were added to the incubation system described above. Every concentration match had three parallels. The MI concentration was detected using the same conditions to depict the Lineweaver–Burk and Dixon plots.
as §1

In data set [3] the test system is vonoprazan metabolism (MI formation) in human liver microsomes. Kind of data set: in vitro. The following applies: pH 7.4.
Data set [4] has as its system vonoprazan metabolism (MI formation) in rat liver microsomes. Kind of data set: Inhibition of vonoprazan metabolism (MI formation) in rat liver microsome incubation. It counts as in vitro ADME. The note with it: rat, rat liver microsomes, pH 7.4, probe vonoprazan (10 µM), metabolite MI measured; RLMs, 10 µM vonoprazan, MI formation. Here is the method: as §2, §1
[5] abbreviates: Amlodipine group (10 mg/kg amlodipine 7 days), single gavage 2 mg/kg vonoprazan, rat plasma.
The mark [6] stands for this setting: amlodipine-pretreated group vs control group, rats.
The mark [7] stands for this setting: Control group (CMC-Na 7 days), single gavage 2 mg/kg vonoprazan, rat plasma.

The term AUC(0-inf) denotes the area under the concentration-time curve extrapolated to infinity. By AUC(0-t) is commonly meant exposure summed from dosing to a finite time, without extrapolation to infinity. What is called Cmax is the maximum level reached in the sampled fluid or tissue. One may read the Tmax as the time at which the peak concentration occurs. Regarding `CNCc1cc(-c2ccccc2F)n(S(=O)(=O)c2cccnc2)c1` [Vonoprazan, vonoprazan], in data set [1] (setting [5]), the “MRT(0-∞)” value is given as 3.06 ± 0.38 h, the AUC(0-inf) was determined as 59 ± 20.9 ng·h/mL, the exposure AUC(0-t) was 58.5 ± 21.1 ng·h/mL and the Cmax turned out to be 19 ± 8.3 ng/mL. In data set [1] (setting [5]), the Tmax was 1.67 ± 0.52 h, the CL/F is 614 mL/min/kg, the MRT last amounted to 2.93 ± 0.3 h and the Vd/F turned out to be 95.5 ± 51.3 L/kg. In addition, the half-life in data set [1] (setting [5]) is 1.73 ± 0.65 h. In data set [1] (setting [6]), the “decrease of CLz/F” value was “approximately by half”, the “decrease of Vz/F” value is on record as “approximately by half”, the “increase of AUC” value is recorded as “nearly twice” and the “increase of Cmax” value is “nearly twice”. In data set [1] (setting [6]), the “increase of Tmax” value is on record as “nearly twice”. For the same molecule, in data set [1] (setting [7]), the AUC(0-inf) is 29.1 ± 5.31 ng·h/mL, the AUC(0-t) was determined as 28.8 ± 5.14 ng·h/mL, the Cmax is 10.2 ± 1.88 ng/mL and the time to peak (Tmax) turned out to be 0.75 ± 0.27 h. Further, in data set [1] (setting [7]), the CL/F was 1180 mL/min/kg, the MRT last is 2.72 ± 0.09 h, the MRT inf was determined as 2.87 ± 0.17 h and the Vd/F worked out at 190 ± 41.6 L/kg. In addition, the half-life in data set [1] (setting [7]) was 1.89 ± 0.37 h.
In the case of `O=C(O)c1cc(-c2ccccc2F)n(S(=O)(=O)c2cccnc2)c1` [MI, 5-(2-fluorophenyl)-1-(pyridin-3-ylsulfonyl)-1H-pyrrole-3-carboxylic acid], in data set [1] (setting [6]), the “fall of CLz/F” value worked out at 38%, the “fall of Vz/F” value came out at 57%, the “increase of AUC” value amounted to 1.6 fold and the “increase of MRT (0-t)” value is listed as 1.4 fold. For the same molecule, the “increase of MRT (0-∞)” value in data set [1] (setting [6]) was found to be 1.2 fold. Moreover, in data set [1] (setting [5]), the AUC(0-inf) worked out at 2580 ± 450 ng·h/mL, the AUC(0-t) turned out to be 2550 ± 459 ng·h/mL, the Cmax stood at 836 ± 176 ng/mL and the Tmax is 1.58 ± 0.67 h. In data set [1] (setting [5]), the CL/F was 13.2 mL/min/kg, the MRT last is 2.92 ± 0.19 h, the MRT inf stood at 3.11 ± 0.31 h and the Vd/F is 2.25 ± 1.11 L/kg. For the same molecule, the half-life in data set [1] (setting [5]) is 1.91 ± 0.76 h. For the same molecule, in data set [1] (setting [7]), the AUC(0-inf) was 1570 ± 189 ng·h/mL, the AUC(0-t) turned out to be 1540 ± 175 ng·h/mL, the Cmax came out at 766 ± 85.1 ng/mL and the Tmax worked out at 1 h. Moreover, in data set [1] (setting [7]), the CL/F was 21.5 mL/min/kg, the MRT last came out at 2.13 ± 0.14 h, the MRT inf was 2.44 ± 0.26 h and the Vd/F was 5.28 ± 2.5 L/kg. Further, the half-life in data set [1] (setting [7]) was 2.91 ± 1.51 h.
As to `COc1ccc([C@@H]2Sc3ccccc3N(CCN(C)C)C(=O)[C@@H]2OC(C)=O)cc1` [Diltiazem, diltiazem hydrochloride], the “inhibition effect on vonoprazan in preliminary in vitro evaluation” value in data set [2] (RLMs, roughly 100 µM drug) was “slightly increased inhibition effects”.
Usually IC50 stands for the concentration that gives 50% inhibition. Turning to `CCOC(=O)C1=C(COCCN)NC(C)=C(C(=O)OC)C1c1ccccc1Cl` (centres unmarked) [Amlodipine, amlodipine besylate], the IC50 at 30 min is 7.2 µM in data set [3] and 17 µM in data set [4]. Moreover, the “inhibition mechanism on vonoprazan metabolism” value in data set [2] (RLMs and HLMs, Lineweaver–Burk and Dixon plots) is reported as “primarily competitive with some non-competitive inhibition”.
